In brackets after ≈: the same amount, converted by molar mass. Where two headings read alike, the source gives them in different places.
Experiments:
[1] = test system: M. smegmatis overexpressing the rv0194 gene of M. tuberculosis (SMR5/pML655); assay: microbe, parasite or virus in culture; type: cell-based; conditions: for MIC: Mycolicibacterium smegmatis
[2] = test system: M. bovis BCG ML1034 mutant (bcg0231/rv0194 overexpressed); type: cell-based
[3] = test system: M. bovis BCG transposon mutants; type: cell-based
[4] = test system: M. tuberculosis mctB mutant ML256 (Δrv1698); type: cell-based
Mtb mctB mutant ML256 = test system: Mtb mctB mutant ML256; set-up: species or system mice; conditions: mouse, in vivo
[5] = read-out: MIC rv0194 overexpression

| Structure (SMILES) | Resistance Factor [1] | MIC [1, 5] | Resistance Factor [2] | MIC ML1034 [2] | other results |
| --- | --- | --- | --- | --- | --- |
| CC1(C)S[C@@H]2[C@H](NC(=O)[C@H](N)c3ccccc3)C(=O)N2[C@H]1C(=O)O [Ampicillin] | 2 | 0.25 mg/mL (≈ 715 µM) | 32 |  | MIC of amp. [2]: 2000 mg/mL; MIC of ampicillin, completely resistant mutants [3]: ≥ 2,000 μg/ml; MIC of ampicillin, mutants excluded from further analysis [3]: lower than 250 μg/ml; MICs of ampicillin for all transposon mutants [3]: higher than 62.5 μg/ml |
| Cc1cc(-c2ccc(S(=O)(=O)O)cc2)c2ccc3c(-c4ccc(S(=O)(=O)O)cc4)cc(C)nc3c2n1 [Bathocuproine disulfonate] |  |  |  |  | protection from the toxic effects of CuSO4 [4]: protects Mtb from the toxic effects of CuSO4 |
| O=C(N[C@H](CO)[C@H](O)c1ccc([N+](=O)[O-])cc1)C(Cl)Cl [Chloramphenicol] | 1 | 0.032 mg/mL (≈ 99 µM) | 64 | 0.512 mg/mL (≈ 1580 µM) |  |
| O=S(=O)([O-])[O-].[Cu+2] [CuSO4] |  |  |  |  | growth rate on plates with CuSO4 [4]: severely reduced the growth rate; effect of dietary CuSO4 on persistence of the mctB mutant in lungs (Mtb mctB mutant ML256): aggravated the persistence defect |
| CC[C@H]1OC(=O)[C@H](C)[C@@H](O[C@H]2C[C@@](C)(OC)[C@@H](O)[C@H](C)O2)[C@H](C)[C@@H](O[C@@H]2O[C@H](C)C[C@H](N(C)C)[C@H]2O)[C@](C)(O)C[C@@H](C)C(=O)[C@H](C)[C@@H](O)[C@]1(C)O [Erythromycin] | 4 | 0.01 mg/mL (≈ 13.6 µM) |  |  |  |
| CO[C@@H]1[C@@H](OC(N)=O)[C@@H](O)[C@H](Oc2ccc3c(O)c(NC(=O)c4ccc(O)c(CC=C(C)C)c4)c(=O)oc3c2C)OC1(C)C [Novobiocin] | 2 | 0.008 mg/mL (≈ 13.1 µM) |  |  |  |
| [H]/N=C(/N)N[C@H]1[C@H](O)[C@@H](O)[C@H](O[C@@H]2O[C@@H](C)[C@](O)(C=O)[C@H]2O[C@@H]2O[C@@H](CO)[C@H](O)[C@@H](O)[C@@H]2NC)[C@@H](N/C(N)=N\[H])[C@@H]1O [Streptomycin] |  |  | 32 | 0.016 mg/mL (≈ 27.5 µM) |  |
| CN(C)[C@@H]1C(=O)C(C(N)=O)=C(O)[C@@]2(O)C(=O)C3=C(O)c4c(O)cccc4[C@@](C)(O)[C@H]3C[C@@H]12 [Tetracyclin] | 1 |  |  | >0.016 mg/mL | MIC rv0194 overexpression [1]: 0.0003 mg/mL (≈ 0.675 µM) |
| CN[C@H](CC(C)C)C(=O)N[C@H]1C(=O)N[C@@H](CC(N)=O)C(=O)N[C@H]2C(=O)N[C@H]3C(=O)N[C@H](C(=O)N[C@H](C(=O)O)c4cc(O)cc(O)c4-c4cc3ccc4O)[C@H](O)c3ccc(c(Cl)c3)Oc3cc2cc(c3O[C@@H]2O[C@H](CO)[C@@H](O)[C@H](O)[C@H]2O[C@H]2C[C@](C)(N)[C@H](O)[C@H](C)O2)Oc2ccc(cc2Cl)[C@H]1O [Vancomycin] | 2 | 0.0025 mg/mL (≈ 1.73 µM) |  | 0.02 mg/mL (≈ 13.8 µM) |  |
| CC[n+]1c(-c2ccccc2)c2cc(N)ccc2c2ccc(N)cc21 [ethidium bromide] |  |  |  |  | MIC ([1]; read-out: MIC of ethidium bromide): 0.0025 mg/mL |

— patent publication US20110160123A1, “TARGETING THE EFFLUX SYSTEMS OF MYCOBACTERIUM TUBERCULOSIS” (THE UAB RESEARCH FOUNDATION, priority 2008, published 2011)
